The values below come from paper PMC8026324, “In Vitro Antiplasmodial, Heme Polymerization, and Cytotoxicity of Hydroxyxanthone Derivatives” (Journal of Tropical Medicine, 2021).

As usually defined, the IC50 is the concentration needed to halve the response being measured. A high value points to a need for much substance. As usually defined, the inhibition is the relative decrease from the control value, in per cent.

For the assay, the system named is Vero cells. Kind of assay: In vitro cytotoxicity test, MTT assay on Vero cell line. The assay is classed as cell-based. The settings on record: for IC50: MTT assay. The method, then: The in vitro cytotoxicity test was conducted using the 3-(4,5-dimethylthiazol-2-yl)2,5-diphenyltetrazolium bromide (MTT) assay method on Vero cell line culture using the Anderson et al.'s modified method.
The cell was removed from the cryo medium. Then, the cell was thawed at 37°C. The liquid cell was subsequently transferred to the tube and a culture medium was added to a volume of 10 mL. Then, the suspension was centrifuged for 15 minutes so that it would form cell pellets. The supernatant was removed and 1 mL of culture medium was added to the cell pellets. Finally, the suspension was transferred to the Petri dish and incubated in the incubator with 5% of CO2 at 37°C.
The medium of Vero cell culture was removed, and then the cell was washed using a PBS solution with a volume of PBS ± 1/2 of the initial medium volume. This step was done twice and 1 mL of trypsin 0.25% was added. Subsequently, the cell was incubated in the CO2 incubator at 37°C for 3 minutes. Then, the cell was resuspended using 2 mL of culture medium and PBS solution was added up to 10 mL. The suspension was centrifuged for 15 minutes so that it formed pellets. Pellets were added with 1 mL of culture medium and resuspended. Take 10 μL of the cell suspension and density of cells was calculated.
Then, the cell was added with culture medium to 10 mL. A total of 100 μL of such suspensions was transferred into each well of the 96-well microplate, but three of the wells were emptied as medium controls. Subsequently, the microplate was incubated in a 5% CO2 incubator at 37°C.
Each hydroxyxanthone derivative compound was dissolved in DMSO, and a variety of concentrations were prepared in the medium. Each concentration of the testing compound was added into the 96-well microplate triplicately. Cell control and medium control were not given a testing compound solution. The medium control remained blank, while the cell control contained culture medium only. […] Then, the cell was incubated in a 5% CO2 incubator at 37°C for 24 hours.
After the cell was incubated for 24 hours, the medium was discarded and washed with PBS. Then, each well was added with 100 μL of 5 mg/mL of MTT solution. The 96-well microplate was incubated again in the incubator of CO2 at 37°C for 4 hours. Then, 100 μL of 10% of SDS in 0.01 MHCl was added. The cells were placed in a dark room at room temperature for 24 hours.
The absorbance was measured using the enzyme-linked immunosorbent assay (ELISA) reader at 595 nm wavelength. The cytotoxicity test on the Vero cells was done by calculating the percentage of Vero cell inhibition of the absorption value of the test compound, cell control, and medium control. The cytotoxic effect was expressed as IC50. The IC50 value was obtained from the probit analysis by using SPSS software (IBM Corp., Chicago). The degree of selectivity was expressed as a selectivity index. The selectivity index was obtained from the ratio between the IC50 cytotoxic effect on Vero cells and IC50 antiplasmodial activity on Plasmodium. A compound is said to be safe if the value of the selectivity index is >10 [20].

Take `O=c1c2c(O)cccc2oc2cc(O)cc(O)c12` [HX1, 1,6,8-trihydroxyxanthone]: the IC50 (24 hours incubation) worked out at 3.39 ± 0.435 mM; 3.28 mM corresponded to half-maximal inhibition (Chlorocebus sabaeus, Vero, 24 h, 24 hours incubation) (IC50); the concentration for half-maximal inhibition (IC50) (Chlorocebus sabaeus, Vero) amounted to 802 µg/mL. In addition, under “Chlorocebus sabaeus, Vero, 24 h, 255.94 μM, read-out: Vero cell growth inhibition after 24 hours incubation”, the inhibition at 255.94 µM was -50.3 ± 17.2%. Besides, the inhibition at 511.88 µM (Chlorocebus sabaeus, Vero, 24 h, 511.88 μM, read-out: Vero cell growth inhibition after 24 hours incubation) is -4.13 ± 8.21%. For the setting “Chlorocebus sabaeus, Vero, 24 h, 1023.75 μM, read-out: Vero cell growth inhibition after 24 hours incubation”, the inhibition at 1023.75 µM amounted to 15.9 ± 8.24%. Besides, the inhibition at 2047.5 µM (Chlorocebus sabaeus, Vero, 24 h, 2047.50 μM, read-out: Vero cell growth inhibition after 24 hours incubation) turned out to be 28 ± 5.69%. Also, the inhibition at 4095 µM (Chlorocebus sabaeus, Vero, 24 h, 4095.00 μM, read-out: Vero cell growth inhibition after 24 hours incubation) was found to be 45.9 ± 5.51%. Further, the inhibition at 8190.01 µM (Chlorocebus sabaeus, Vero, 24 h, 8190.01 μM, read-out: Vero cell growth inhibition after 24 hours incubation) turned out to be 89.4 ± 1.9%. Further, the “Selectivity index (over strains 3D-7 and FCR-3)” value (cytotoxicity/antiplasmodium ratio on P. falciparum 3D-7 and FCR-3) is “more than 10”. Besides, where the note is “ratio IC50 on Vero cell/IC50 on P. falciparum 3D-7”, the “Selectivity index 3D-7” value is given as 556.54. The “Selectivity index FCR-3” value (ratio IC50 on Vero cell/IC50 on P. falciparum FCR-3) worked out at 502.20.
